This is an account of results in patent US20210161131A1, “cis-p-Menthane-1,8-Di-secondary Amine Compounds as well as Their Preparation Methods and Application in Weed Control” (RESEARCH INSTITUTE OF FORESTRY NEW TECHNOLOGY, CHINESE …, priority 2019, published 2021).

This experiment concerns barnyard grass seeds. The experiment in a line: Petri dish seed germination method: inhibition of root and stem growth of barnyard grass. The class given is in vivo. The note with it: 96 hours incubation. As for the experimental part: (§1) Step 2: Accurately weigh 1 mmol cis-p-menthane-1,8-di-Schiff base compounds and cis-p-menthane-1,8-di-secondary amine compounds respectively, dissolve each of them with 0.25 mL DMF, and add a drop of Tween 80 in each resulted solution. After being fully dissolved, each solution is transferred to a 100 mL volumetric flask respectively and then diluted to the mark with distilled water to obtain a solution with a concentration of 10 mmol/L as the mother liquor. The two-fold dilution method is used to prepare diluted solutions with a series of concentrations (the concentrations of DMF and Tween 80 in the diluted solutions are the same as those in the mother liquor).
(§2) Barnyard grass seeds are placed in a 28° C. incubator and are soaked in an appropriate amount of distilled water for 12 hours there. After the clean water is filtered out, the seeds are then placed in the 28° C. incubator for 24 hours to germinate. Spread 2 pieces of filter paper in each of several Petri dishes, and place 10 barnyard grass seeds with the same size in each dish. Repeat each treatment for three times The dishes are divided into two groups: test dishes and control dishes. Add into each test dish 10 mL of the sample solution with the corresponding concentration of the target compound, and add into each control dish the same amount of the mixture of water, DMF and Tween 80 as the blank control. Add 10 seeds to each of the dishes (both test dishes and control dishes), place them in an artificial climate incubator, and incubate them for 96 hours under a temperature of 28° C., an illumination of 5000 1×, a photoperiod of day:night=16:8 and a relative humidity of 70-80%. The experimental data is processed and analyzed with DPS software to calculate the inhibition rate (y) of cis-p-menthane-1,8-di-secondary amine compounds on the root growth or stem growth of barnyard grass seeds.
Wherein, y is the inhibition rate of root growth or stem growth (%), x0 is the root length or stem length of the control, and x1 is the root length or stem length of the sample.
as §1, with “Accurately” for “Step 2: Accurately”, “cis-p-menthane-1,8-bis-(4-chlorophenyl)Schiff” for “cis-p-menthane-1,8-di-Schiff”, “base” for “base compounds”, “cis-p-menthane-1,8-bis-(4-chlorobenzyl)amine” for “cis-p-menthane-1,8-di-secondary amine compounds”, “(5 mmol/L, 2.5 mmol/L, 1.25 mmol/L, 0.625 mmol/L, 0.3125 mmol/L and 0.1563 mmol/L; the” for “(the”
as §2, with “placed in a 30° C. incubator” for “placed in the 28° C. incubator”, “in each Petri dish,” for “in each of several Petri dishes,”, “each Petri dish, and place” for “several Petri dishes, and place”, “with the above corresponding concentration” for “with the corresponding concentration”, “with DPS software.” for “with DPS software to calculate the inhibition rate (y) of cis-p-menthane-1,8-di-secondary amine compounds on the root growth or stem growth of barnyard grass seeds.”

Take `COc1ccc(C=NC2(C)CCC(C(C)(C)N=Cc3ccc(OC)cc3)CC2)cc1` (stereo not drawn) [cis-p-menthane-1,8-bis-(4-methoxybenzyl)Schiff base, reference compound]: the “inhibition rate on the root growth of barnyard grass seeds” value (“inhibition rate on the root growth” below) (0.3125 mmol/L) stood at 70.7%; the “inhibition rate on the root growth” value (0.625 mmol/L) is given as 66.7%; the “inhibition rate on the root growth” value (1.25 mmol/L) stood at 55.3%; the “inhibition rate on the root growth” value (2.5 mmol/L) amounted to 28.1%; the “inhibition rate on the root growth” value (5 mmol/L) came out at 7.6%. The “inhibition rate on the stem growth of barnyard grass seeds” value (from here on “inhibition rate on the stem growth”) reads like this: (0.3125 mmol/L) 15.4%; (0.625 mmol/L) 6.9%; (1.25 mmol/L) 4%; (2.5 mmol/L) 8.0%; (5 mmol/L) 2.1%.
For `COc1ccc(CNC2(C)CCC(C(C)(C)NCc3ccc(OC)cc3)CC2)cc1` (stereo not drawn) [cis-p-menthane-1,8-bis-(4-methoxybenzyl)amine], the “inhibition rate on the root growth” value worked out at 37.8% (0.15625 mmol/L); 42.2% (0.3125 mmol/L); 88.7% (0.625 mmol/L); 95.1% (1.25 mmol/L); 96.5% (2.5 mmol/L); 100.0% (5 mmol/L). Also, the “inhibition rate on the stem growth” value (0.15625 mmol/L) is 9.9%; the “inhibition rate on the stem growth” value (0.3125 mmol/L) was determined as 27.9%; the “inhibition rate on the stem growth” value (0.625 mmol/L) amounted to 72.5%; the “inhibition rate on the stem growth” value (1.25 mmol/L) is listed as 70.6%; the “inhibition rate on the stem growth” value (2.5 mmol/L) worked out at 84.4%; the “inhibition rate on the stem growth” value (5 mmol/L) worked out at 84.3%.
`Cc1ccc(CNC(C)(C)[C@H]2CC[C@@](C)(NCc3ccc(C)cc3)CC2)cc1` [cis-p-menthane-1,8-bis-(4-methylbenzyl)amine]: the “inhibition rate on the root growth” value was found to be 42.5% (0.15625 mmol/L); 86.6% (0.3125 mmol/L); 89.6% (0.625 mmol/L); 91.9% (1.25 mmol/L); 95.2% (2.5 mmol/L); 100.0% (5 mmol/L). In addition, the “inhibition rate on the stem growth” value is on record as 42.1% (0.15625 mmol/L); 64.6% (0.3125 mmol/L); 65.9% (0.625 mmol/L); 74.7% (1.25 mmol/L); 87.1% (2.5 mmol/L); 93.3% (5 mmol/L).
`CSc1ccc(CNC2(C)CCC(C(C)(C)NCc3ccc(SC)cc3)CC2)cc1` (stereo not drawn) [cis-p-menthane-1,8-bis-(4-methylthiobenzyl)amine]: the “inhibition rate on the root growth” value is, setting by setting: (0.15625 mmol/L) 32.0%; (0.3125 mmol/L) 58.1%; (0.625 mmol/L) 77.2%; (1.25 mmol/L) 90.8%; (2.5 mmol/L) 96.0%; (5 mmol/L) 98.5%. The “inhibition rate on the stem growth” value (0.15625 mmol/L) was 22.8%; the “inhibition rate on the stem growth” value (0.3125 mmol/L) came out at 66.0%; the “inhibition rate on the stem growth” value (0.625 mmol/L) was determined as 66.2%; the “inhibition rate on the stem growth” value (1.25 mmol/L) is 83.4%; the “inhibition rate on the stem growth” value (2.5 mmol/L) was determined as 77.5%; the “inhibition rate on the stem growth” value (5 mmol/L) was 85.1%.
With `CC1(N=Cc2ccc(C(F)(F)F)cc2)CCC(C(C)(C)N=Cc2ccc(C(F)(F)F)cc2)CC1` (stereo not drawn) [cis-p-menthane-1,8-bis-(4-trifluoromethylbenzyl)Schiff base, reference compound], the “inhibition rate on the stem growth” value is, setting by setting: (0.3125 mmol/L) 20.6%; (0.625 mmol/L) 30.9%; (1.25 mmol/L) 14.6%; (2.5 mmol/L) 19.5%; (5 mmol/L) 31.1%. For the same compound, the “inhibition rate on the root growth” value (0.625 mmol/L) was 0.8%, the “inhibition rate on the root growth” value (1.25 mmol/L) was determined as 17.5%, the “inhibition rate on the root growth” value (2.5 mmol/L) is on record as 7.1% and the “inhibition rate on the root growth” value (5 mmol/L) amounted to 48.4%.
For the compound `CC1(NCc2ccc(C(F)(F)F)cc2)CCC(C(C)(C)NCc2ccc(C(F)(F)F)cc2)CC1` (stereo not drawn) [cis-p-menthane-1,8-bis-(4-trifluoromethylbenzyl)amine], the “inhibition rate on the root growth” value is listed as 1.0% (0.15625 mmol/L); 62.8% (0.3125 mmol/L); 82.3% (0.625 mmol/L); 86.1% (1.25 mmol/L); 100.0% (2.5 mmol/L); 100.0% (5 mmol/L). For the same compound, the “inhibition rate on the stem growth” value (0.15625 mmol/L) is on record as 11.6%; the “inhibition rate on the stem growth” value (0.3125 mmol/L) amounted to 42.2%; the “inhibition rate on the stem growth” value (0.625 mmol/L) is given as 55.1%; the “inhibition rate on the stem growth” value (1.25 mmol/L) is 67.0%; the “inhibition rate on the stem growth” value (2.5 mmol/L) is reported as 83.4%; the “inhibition rate on the stem growth” value (5 mmol/L) is reported as 78.5%.
Regarding `CC1(NCc2ccc(Br)o2)CCC(C(C)(C)NCc2ccc(Br)o2)CC1` (stereo not drawn) [cis-p-menthane-1,8-bis-(5-bromofuran-2-methyl)amine], the “inhibition rate on the root growth” value reads like this: (0.15625 mmol/L) 42.2%; (0.3125 mmol/L) 39.6%; (0.625 mmol/L) 54.8%; (1.25 mmol/L) 61.5%; (2.5 mmol/L) 84.4%; (5 mmol/L) 90.7%. In addition, the “inhibition rate on the stem growth” value is on record as 10.1% (0.15625 mmol/L); 5.6% (0.3125 mmol/L); 11.6% (0.625 mmol/L); 30.3% (1.25 mmol/L); 50.5% (2.5 mmol/L); 71.8% (5 mmol/L).
For `Cc1ccc(CNC(C)(C)[C@H]2CC[C@@](C)(NCc3ccc(C)o3)CC2)o1` [cis-p-menthane-1,8-bis-(5-methylfuran-2-methyl)amine], the “inhibition rate on the root growth” value is listed as 23.1% (0.15625 mmol/L); 41.3% (0.3125 mmol/L); 24.7% (0.625 mmol/L); 50.3% (1.25 mmol/L); 64.4% (2.5 mmol/L); 95.5% (5 mmol/L). Further, the “inhibition rate on the stem growth” value is 7.2% (0.15625 mmol/L); 12.5% (0.3125 mmol/L); 6.8% (0.625 mmol/L); 17.1% (1.25 mmol/L); 36.5% (2.5 mmol/L); 79.8% (5 mmol/L).
